pIC50: −log10 of the molar value. *1 amine or outer side, *2 acyl side, *3 side chain or, on linkers, in order; H or OH if unused. Where a SMILES comes first, the peptide text is derived from it. Bridges are numbered along the chain shown (N, C = ends). Side-chain parts run from the residue outwards. [ ]: non-standard residue; d: D form. The star is where a group is joined. X14 = CC(=O)N(C)CCCC[C@H](CC(=O)C1(N*)CCOCC1)C(=O)N[C@@H](CC(N)=O)C(=O)N[C@@H](Cc1cccnc1)C(=O)N(C)CC(=O)N(C)C; X9 = O=C(O)CCCCCCCCCCCCCCCCC(=O)N[C@@H](CCC(=O)NCCOCCOCCOCCOCCOCCOCCOCCOCCOCCOCCOCCCCCC(=O)*)C(=O)O; Me3N+(CH2)2O(CH2)2O(CH2)2CO = C[N+](C)(C)CCOCCOCCC(=O)*; PEG12 = NCCOCCOCCOCCOCCOCCOCCOCCOCCOCCOCCOCCOCCC(=O)O; Trp(7-Me) = Cc1cccc2c(C[C@H](N)C(=O)O)c[nH]c12; C22 diacid = O=C(O)CCCCCCCCCCCCCCCCCCCCC(=O)*; C18 diacid = O=C(O)CCCCCCCCCCCCCCCCC(=O)*; γGlu = O=C(O)[C@H](CCC(=O)[*:2])N[*:1]; 2Nal = N[C@@H](Cc1ccc2ccccc2c1)C(=O)O; AEF = NCCOc1ccc(C[C@H](N)C(=O)O)cc1; 3Pal = N[C@@H](Cc1cccnc1)C(=O)O; Lys(Me) = CNCCCC[C@H](N)C(=O)O; Pen = CC(C)(S)[C@H](N)C(=O)O; Thp = NC1(C(=O)O)CCOCC1; X1 = C[N+](C)(C)CCCCC*; AEEA = NCCOCCOCC(=O)O; Sar = CNCC(=O)O

One test has as its target T1, IL-23R (Homo sapiens, UniProt Q5VWK5).
T1 construct: HEK293 cells containing IL-23R, IL-12Rβ1 and a firefly luciferase reporter gene driven by a STAT-inducible promoter (Promega); host or cells: HEK293
T1 sequence (Q5VWK5 24-629): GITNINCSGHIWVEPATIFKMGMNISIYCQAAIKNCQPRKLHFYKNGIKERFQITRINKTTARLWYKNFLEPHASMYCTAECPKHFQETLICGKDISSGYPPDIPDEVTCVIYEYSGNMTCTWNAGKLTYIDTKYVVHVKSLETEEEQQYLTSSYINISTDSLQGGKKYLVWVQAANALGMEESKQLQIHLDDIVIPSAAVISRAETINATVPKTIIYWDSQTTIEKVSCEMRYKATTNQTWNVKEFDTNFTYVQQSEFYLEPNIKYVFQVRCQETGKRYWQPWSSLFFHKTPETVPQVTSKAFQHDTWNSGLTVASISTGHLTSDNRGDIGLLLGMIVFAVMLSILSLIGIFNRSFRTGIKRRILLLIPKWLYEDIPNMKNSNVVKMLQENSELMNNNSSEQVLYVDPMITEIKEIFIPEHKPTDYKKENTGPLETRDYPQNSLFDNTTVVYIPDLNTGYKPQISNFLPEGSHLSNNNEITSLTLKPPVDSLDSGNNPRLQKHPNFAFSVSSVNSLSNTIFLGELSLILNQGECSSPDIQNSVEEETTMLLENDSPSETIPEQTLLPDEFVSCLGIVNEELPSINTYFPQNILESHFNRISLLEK
Nature of the test: IL23R Reporter Assay. It counts as cell-based. As to conditions: HEK293 cells containing IL-23R, IL-12Rβ1 and STAT-inducible firefly luciferase reporter; 10 ng/mL IL-23 (EC90); 5 h. An outline of the steps:
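HEK293 cells carrying IL-23R, IL-12Rβ1 and a STAT-driven firefly luciferase reporter (4000 cells/well) received compound, then 10 ng/mL IL-23 solution (EC90), and were incubated for 5 h at 37° C. BioGlo luminescence was normalised to IL-23 alone (0%) and 30 μM control inhibitor (100%). IC50 came from a 4-parameter Hill fit.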
(In general: A reporter such as luciferase makes a cellular process visible.)

Test [1] deals with IL-23-stimulated phosphorylated STAT3 in peripheral blood mononuclear cells (PBMCs). Nature of the test: PBMC pSTAT3 Assay. As to conditions: PBMCs from healthy donors; 30 min preincubation with peptide; IL-23 5 ng/mL for 30 min; phospho-STAT3 by MSD. It is filed as cell-based. An outline of the steps:
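Healthy-donor PBMCs expanded 4 days on anti-CD3 with 100 ng/mL IL-1β, starved ~4 h in RPMI-0.1% BSA, preincubated 30 min with peptide, then stimulated 30 min at 37 °C with 5 ng/mL IL-23. Lysate pSTAT3 measured by MSD phospho-STAT panel; IC50 derived.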

A word on the pIC50: it is the IC50 on a negative log10 scale, so that one unit is a factor of ten. Take `CC(=O)N(C)CCCC[C@@H]1NC(=O)[C@H](Cc2c[nH]c3c(C)cccc23)NC(=O)[C@H]([C@@H](C)O)NC(=O)[C@H](CCCCNC(=O)CCCCCOCCOCCOCCOCCOCCOCCOCCOCCOCCOCCOCCNC(=O)CC[C@H](NC(=O)CCCCCCCCCCCCCCCCC(=O)O)C(=O)O)NC(=O)[C@@H](NC(=O)CCOCCOCC[N+](C)(C)C)C(C)(C)SSC(C)(C)[C@@H](C(=O)N[C@@H](Cc2ccc(OCCCCC[N+](C)(C)C)cc2)C(=O)N[C@@H](Cc2ccc3ccccc3c2)C(=O)NC2(C(=O)N[C@@H](CCCCN(C)C(C)=O)C(=O)N[C@@H](CC(N)=O)C(=O)N[C@@H](Cc3cccnc3)C(=O)N(C)CC(=O)N(C)C)CCOCC2)NC1=O` [compound 115, cPEG3aCO-Pen(3)-K(PEG12gEC20OH)-T-7MeW-K(NMeAc)-Pen(3)-TMAPF-2Nal-THP-K(NMeAc)-N-3Pya-Sar-CON(Me)2] ({Me3N+(CH2)2O(CH2)2O(CH2)2CO}-[Pen]K(X9)T[Trp(7-Me)][Lys(Me)](Ac)[Pen]Y(X1)[2Nal][Thp][Lys(Me)](Ac)N[3Pal][Sar]-NMe2; disulfide 1-6): the figures for the pIC50 (at IL-23R; in test [1]) were over 7.30 and 8.30 to 9.30, respectively.

`CC(=O)N(C)CCCC[C@@H]1NC(=O)[C@H](Cc2c[nH]c3c(C)cccc23)NC(=O)[C@H]([C@@H](C)O)NC(=O)[C@H](CCCCNC(=O)CCCCCOCCOCCOCCOCCOCCOCCOCCOCCOCCOCCOCCNC(=O)CC[C@H](NC(=O)CCCCCCCCCCCCCCCCC(=O)O)C(=O)O)NC(=O)[C@@H](NC(=O)CCOCCOCC[N+](C)(C)C)C(C)(C)SSC(C)(C)[C@@H](C(=O)N[C@@H](Cc2ccc(OCCCCC[N+](C)(C)C)cc2)C(=O)N[C@@H](Cc2ccc3ccccc3c2)C(=O)NC2(C(=O)N[C@@H](CCCCN(C)C(C)=O)C(=O)N[C@@H](CC(N)=O)C(=O)N[C@@H](Cc3cccnc3)C(=O)N(C)CC(=O)N(C)C)CCOCC2)NC1=O` [compound 116, HOC18gEPEG12CO-Pen(3)-N-T-K(Ac)-Pen(3)-AEF-2Nal-THP-E-N-3Pya-Sar-CONH2] ({Me3N+(CH2)2O(CH2)2O(CH2)2CO}-[Pen]K(X9)T[Trp(7-Me)][Lys(Me)](Ac)[Pen]Y(X1)[2Nal][Thp][Lys(Me)](Ac)N[3Pal][Sar]-NMe2; disulfide 1-6): the results for the pIC50 (at IL-23R; in test [1]) were over 7.30 and over 9.30, respectively.

With `CC(=O)NCCCC[C@@H]1NC(=O)[C@H](Cc2c[nH]c3c(C)cccc23)NC(=O)[C@H]([C@@H](C)O)NC(=O)[C@H](CC(N)=O)NC(=O)[C@@H](NC(=O)[C@@H](CCCCNC(=O)CCOCCOCCOCCOCCOCCOCCOCCOCCOCCOCCOCCOCCNC(=O)CC[C@H](NC(=O)CCCCCCCCCCCCCCCCC(=O)O)C(=O)O)NC(C)=O)C(C)(C)SSC(C)(C)[C@@H](C(=O)N[C@@H](Cc2ccc(OCCN)cc2)C(=O)N[C@@H](Cc2ccc3ccccc3c2)C(=O)NC2(C(=O)N[C@@H](CCC(=O)O)C(=O)N[C@@H](CC(N)=O)C(=O)N[C@@H](Cc3cccnc3)C(=O)N(C)CC(N)=O)CCOCC2)NC1=O` [compound 117, MeCO-k(PEG12gEC18OH)-Pen(3)-N-T-7MeW-K(Ac)-Pen(3)-AEF-2Nal-THP-E-N-3Pya-Sar-CONH2] (Ac-[dK]([PEG12-γGlu-C18 diacid])[Pen]NT[Trp(7-Me)]K(Ac)[Pen][AEF][2Nal][Thp]EN[3Pal][Sar]-NH2; disulfide 2-7), the values for the pIC50 (against IL-23R; in test [1]) were over 7.30 and over 9.30, respectively.

Regarding `CC(=O)N(C)CCCC[C@@H]1NC(=O)[C@H](Cc2c[nH]c3c(C)cccc23)NC(=O)[C@H]([C@@H](C)O)NC(=O)[C@H](CC(=O)N(C)C)NC(=O)[C@@H](NC(=O)COCCOCCNC(=O)COCCOCCNC(=O)CC[C@H](NC(=O)CCCCCCCCCCCCCCCCC(=O)O)C(=O)O)C(C)(C)SSC(C)(C)[C@@H](C(=O)N[C@@H](Cc2ccc(OCCCCC[N+](C)(C)C)cc2)C(=O)N[C@@H](Cc2ccc3ccccc3c2)C(=O)NC2(C(=O)N[C@@H](CCCCN(C)C(C)=O)C(=O)N[C@@H](CC(N)=O)C(=O)N[C@@H](Cc3cccnc3)C(=O)N(C)CC(=O)N(C)C)CCOCC2)NC1=O` [compound 118, HOC18gEPEG2PEG2CO-Pen(3)-N(N(Me)2)-T-7MeW-K(NMeAc)-Pen(3)-TMAPF-2Nal-THP-K(NMeAc)-N-3Pya-Sar-CON(Me)2] ({C18 diacid-γGlu-AEEA-AEEA}-[Pen]D(NMe2)T[Trp(7-Me)][Lys(Me)](Ac)[Pen]Y(X1)[2Nal][Thp][Lys(Me)](Ac)N[3Pal][Sar]-NMe2; disulfide 1-6), the pIC50 was over 7.30 against IL-23R and over 9.30 in test [1].

For the compound `CC(=O)N(C)CCCC[C@H](CC(=O)C1(NC(=O)[C@H](Cc2ccc3ccccc3c2)NC(=O)[C@H](Cc2ccc(OCCCCC[N+](C)(C)C)cc2)NC(=O)[C@H]2NC(=O)[C@H](CCCCN(C)C(C)=O)NC(=O)[C@H](Cc3c[nH]c4c(C)cccc34)NC(=O)[C@H]([C@@H](C)O)NC(=O)[C@H](CC(=O)N(C)C)NC(=O)[C@@H](NC(=O)COCCOCCNC(=O)COCCOCCNC(=O)CC[C@H](NC(=O)CCCCCCCCCCCCCCCCCCCCC(=O)O)C(=O)O)C(C)(C)SSC2(C)C)CCOCC1)C(=O)N[C@@H](CC(N)=O)C(=O)N[C@@H](Cc1cccnc1)C(=O)N(C)CC(=O)N(C)C` [compound 119, HOC20gEPEG2PEG2CO-Pen(3)-N(N(Me)2)-T-7MeW-K(NMeAc)-Pen(3)-TMAPF-2Nal-THP-K(NMeAc)-N-3Pya-Sar-CON(Me)2] ({C22 diacid-γGlu-AEEA-AEEA}-[Pen]D(NMe2)T[Trp(7-Me)][Lys(Me)](Ac)[Pen]Y(X1)[2Nal]-X14; disulfide 1-6), the pIC50 against IL-23R was over 7.30; in test [1] it was over 9.30.

Consider `CC(=O)N(C)CCCC[C@@H]1NC(=O)[C@H](Cc2c[nH]c3c(C)cccc23)NC(=O)[C@H]([C@@H](C)O)NC(=O)[C@H](CC(=O)N(C)C)NC(=O)[C@@H](NC(=O)CCOCCOCC[N+](C)(C)C)C(C)(C)SSC(C)(C)[C@@H](C(=O)N[C@@H](Cc2ccc(OCCCCC[N+](C)(C)C)cc2)C(=O)N[C@@H](Cc2ccc3ccccc3c2)C(=O)NC2(C(=O)N[C@@H](CCCCNC(=O)COCCOCCNC(=O)COCCOCCNC(=O)CC[C@H](NC(=O)CCCCCCCCCCCCCCCCC(=O)O)C(=O)O)C(=O)N[C@@H](CC(N)=O)C(=O)N[C@@H](Cc3ccccc3)C(=O)N(C)CC(=O)N(C)C)CCOCC2)NC1=O` [compound 120, cPEG3aCO-Pen(3)-N(N(Me)2)-T-7MeW-K(NMeAc)-Pen(3)-TMAPF-2Nal-THP-K(PEG2PEG2gEC18OH)-N-3Pya-Sar-CON(Me)2] ({Me3N+(CH2)2O(CH2)2O(CH2)2CO}-[Pen]D(NMe2)T[Trp(7-Me)][Lys(Me)](Ac)[Pen]Y(X1)[2Nal][Thp]K([AEEA-AEEA-γGlu-C18 diacid])NF[Sar]-NMe2; disulfide 1-6), for which the pIC50 against IL-23R is over 7.30; in test [1], over 9.30.

Turning to `CC(=O)N(C)CCCC[C@@H]1NC(=O)[C@H](Cc2c[nH]c3ccccc23)NC(=O)[C@H]([C@@H](C)O)NC(=O)[C@H](CCCCNC(=O)COCCOCCNC(=O)COCCOCCNC(=O)CC[C@H](NC(=O)CCCCCCCCCCCCCCCCC(=O)O)C(=O)O)NC(=O)[C@@H](NC(=O)CCOCCOCC[N+](C)(C)C)C(C)(C)SSC(C)(C)[C@@H](C(=O)N[C@@H](Cc2ccc(OCCCCC[N+](C)(C)C)cc2)C(=O)N[C@@H](Cc2ccc3ccccc3c2)C(=O)NC2(C(=O)N[C@@H](CCCCN(C)C(C)=O)C(=O)N[C@@H](CC(N)=O)C(=O)N[C@@H](Cc3cccnc3)C(=O)N(C)CC(=O)N(C)C)CCOCC2)NC1=O` [compound 122, cPEG3aCO-Pen(3)-K(PEG2PEG2gEC18OH)-T-7MeW-K(NMeAc)-Pen(3)-TMAPF-2Nal-THF-K(NMeAc)-N-3Pya-Sar-CON(Me)2] ({Me3N+(CH2)2O(CH2)2O(CH2)2CO}-[Pen]K([AEEA-AEEA-γGlu-C18 diacid])TW[Lys(Me)](Ac)[Pen]Y(X1)[2Nal][Thp][Lys(Me)](Ac)N[3Pal][Sar]-NMe2; disulfide 1-6), the pIC50 against IL-23R is 6.30 to 7.30; in test [1], over 9.30.

These data come from patent US20260250320A1, “LIPIDATED PEPTIDE INHIBITORS OF INTERLEUKIN-23 RECEPTOR” (Janssen Pharmaceutica NV, priority 2023, published 2026).
